{"source": "patent US8722014B2", "about": "“1 H-[1, 2, 3] triazole substituted amino acids and uses thereof” (Washington University, priority 2009, dated 2014)", "tested_on": "9L gliosarcoma cells", "experiment": "Cell uptake assay in 9L gliosarcoma cells with amino acid transport inhibitors (cluster tray method)", "format": "cell-based", "conditions": "for percent uptake relative to control, Na ASC: L-Ala/L-Ser/L-Cys 3.3 mM each", "protocol": "The 9L gliosarcoma tumor is an established model for human glioblastoma (brain tumor). Cell uptake assays were performed with 9L gliosarcoma cells using both (R)-[^18F]4 and (S)-[^18F]4. 9L gliosarcoma cells were cultured with Earle's minimal essential medium (MEM) augmented with 10% newborn calf serum, 1% 200 mM L-glutamine, 1% MEM vitamin solution and 1% 10 mM non-essential amino acids (NEAA). The cells were passaged every two to three days prior to use with no more than a total of 20 passages. Two to three days before the uptake assays, suspension of 2.5 or 5.0×10^4 cells in culture media were aliquoted into Costar 24 well plates to achieve log growth phase with approximately 70% confluency at the time of the uptake assay (approximately 10^5 cells per well).\nCell uptake assays were performed using the cluster tray method reported in Gazzola et al., Anal. Biochem. 115: 368-374, 1981. Two buffers were used for the assays, a phosphate buffered saline solution and a sodium-free phosphate buffered choline chloride solution. […] The choline buffer was the same as the sodium buffer except choline chloride was substituted for sodium chloride and choline phosphate dibasic was substituted for sodium phosphate dibasic. A 250 mM solution of choline phosphate dibasic was prepared by boiling 95.6 mL of 75% of choline bicarbonate (0.500 mol) and 16.9 mL of 85% aqueous phosphoric acid (0.247 mol) in 750 mL of water for 60 min. The solution was brought to a total volume of 1 liter with water and brought to pH 7.4 with concentrated aqueous hydrochloric acid. The pH of the sodium and choline buffer solutions was adjusted to 7.4 with concentrated aqueous hydrochloric acid prior to use.\nA variety of inhibitor conditions were used to determine which amino acid transport system or systems were responsible for cellular uptake of (R)- and (S)-[^18F]-4. The N-methylated amino acid, methylaminoisobutyric acid (MeAIB), is a selective system A substrate and has been used extensively as a competitive inhibitor of system A transport (Shotwell, M. A., et al. Biochem. Biophys. Acta. 737: 267-284, 1983; Christensen, H. N., et al., J. Biol. Chem. 240: 3609-3616, 1965) The bulky neutral amino acid, 2-aminobicyclo-(2,2,1)-heptane-2-carboxylic acid (BCH), has been extensively used as a competitive inhibitor of system L transport, and under sodium-free conditions BCH is a selective system L inhibitor (Palacin, M., et al., Physiol. Rev. 78: 969-1054, 1998. In the presence of sodium, BCH is also an inhibitor of system B^0,+ which is a sodium-dependent amino acid transporter that typically is a minor transport systems in most tissues. A mixture of L-alanine (L-Ala), L-serine (L-Ser) and L-cysteine (L-Cys), (ASC), was used as a non-specific inhibitor condition, and this combination of amino acids is expected to inhibit a broad range of amino acid transport systems including system ASC. Because of the results of initial cell uptake assays described below and the structural relationship of the 1H-1,2,3-triazole group to the imidazole side chain of L-histidine (L-His), additional uptake assays using L-His as well as the basic side chain amino acids L-arginine (L-Arg) and L-lysine (L-Lys) individually and together (RKH) as competitive inhibitors were performed.\nThe following inhibitors were added to the appropriate sodium or choline buffer: N-methyl aminoisobutyric acid (MeAIB, 10 mM), a mixture of L-alanine/L-serine/L-cysteine (ASC, 3.3 mM of each amino acid), (R,S)-(endo,exo)-2-aminobicyclo(2,2,1)-heptane-2-carboxylic acid (BCH, 10 mM), L-arginine (Arg, 10 mM), L-lysine (Lys, 10 mM), L-histidine (His, 10 mM) and a mixture of Arg/Lys/H is (RKH, 3.3 mM of each amino acid). For control conditions, 10 mM of sucrose was added to maintain consistent osmolality relative to the inhibitor conditions. The pH of each solution of inhibitor in buffer was adjusted as necessary to 7.40 with 3 M aqueous hydrochloric acid prior to use in cell uptake assays. […]", "data": [{"smiles": "Cl.N[C@@H](Cc1cn(CC[18F])nn1)C(=O)O", "note": "[(S)-[^18F]4, (S)-2-amino-3-[1-(2-fluoroethyl)-1H-[1,2,3]triazol-4-yl]propanoic acid hydrochloride salt-[^18F]]", "values": [{"measurement": "inhibition of uptake by ASC condition relative to the sodium control", "setting": "neutral amino acid inhibitor assay, p<0.001", "value": 89, "unit": "%"}, {"measurement": "inhibition of uptake by L-His, L-Arg and L-Lys", "setting": "range over the three basic amino acids", "value": "50-69%"}, {"measurement": "inhibition of uptake by L-Arg relative to control", "setting": "sodium buffer", "value": 50, "unit": "%"}, {"measurement": "inhibition of uptake by L-His relative to control", "setting": "sodium buffer", "value": 69, "unit": "%"}, {"measurement": "percent uptake relative to control, Na RKH", "setting": "sodium buffer, Arg/Lys/His 3.3 mM each (FIG. 4/6)", "value": "37±6", "unit": "%"}, {"measurement": "percent uptake relative to control, Na BCH", "setting": "sodium buffer, BCH 10 mM, 30 sec uptake, neutral amino acid inhibitor assay (FIG. 3/5)", "value": "74±13", "unit": "%"}, {"measurement": "percent uptake relative to control, Na ASC", "setting": "sodium buffer, 30 sec uptake, neutral amino acid inhibitor assay (FIG. 3/5)", "value": "11±7", "unit": "%"}, {"measurement": "percent uptake relative to control, Na ASC", "setting": "sodium buffer, basic side chain amino acid inhibitor assay (FIG. 4/6)", "value": "2.4±3.5", "unit": "%"}, {"measurement": "percent uptake relative to control, Na Arg", "setting": "sodium buffer, L-arginine 10 mM (FIG. 4/6)", "value": "50±9", "unit": "%"}, {"measurement": "percent uptake relative to control, Na His", "setting": "sodium buffer, L-histidine 10 mM (FIG. 4/6)", "value": "31±5", "unit": "%"}, {"measurement": "percent uptake relative to control, Na Lys", "setting": "sodium buffer, L-lysine 10 mM (FIG. 4/6)", "value": "46±4", "unit": "%"}, {"measurement": "percent uptake relative to control, Na MeAIB", "setting": "sodium buffer, MeAIB 10 mM, 30 sec uptake, neutral amino acid inhibitor assay (FIG. 3/5)", "value": "82±7", "unit": "%"}, {"measurement": "inhibition of uptake by BCH versus control in the presence of sodium", "setting": "sodium control vs sodium BCH", "value": 26, "unit": "%"}, {"measurement": "inhibition of uptake by substituting choline for sodium", "setting": "sodium control vs. choline control", "value": 42, "unit": "%"}, {"measurement": "reduction of uptake by BCH relative to the choline control", "setting": "sodium free conditions", "value": "approximately 50%"}, {"measurement": "percent uptake relative to control, Cho BCH", "setting": "sodium-free choline buffer, BCH 10 mM, relative to sodium control (FIG. 3/5)", "value": "30±6", "unit": "%"}, {"measurement": "percent uptake relative to control, Cho sucrose", "setting": "sodium-free choline buffer, sucrose 10 mM, relative to sodium control (FIG. 3/5)", "value": "58±7", "unit": "%"}, {"measurement": "inhibition of uptake by MeAIB", "setting": "system A inhibitor MeAIB, sodium buffer", "value": "no significant inhibition"}]}]}
